Assay results published in PubChem BioAssay (NCI).
“And” between values parts separate entries of the source, which are not always exact repeats. Equal values may be shown once.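 Protocol summary: plate cells (96-well), add compound at 5 concentrations, incubate 48 h, interpolate endpoints linearly. GI50 marks 50% less growth. The concentration for full growth arrest is given as TGI.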

Legend:
Assay in all cases: DTP human tumour cell line panel, 48 h
786-0 renal = test system: 786-0 renal
A549 NSCLC = test system: A549 NSCLC
ACHN renal = test system: ACHN renal
BT-549 breast = test system: BT-549 breast
CAKI-1 renal = test system: CAKI-1 renal
CCRF-CEM leukemia = test system: CCRF-CEM leukemia
COLO 205 colon = test system: COLO 205 colon
EKVX NSCLC = test system: EKVX NSCLC
HCC-2998 colon = test system: HCC-2998 colon
HCT-116 colon = test system: HCT-116 colon
HCT-15 colon = test system: HCT-15 colon
HL-60(TB) leukemia = test system: HL-60(TB) leukemia
HOP-62 NSCLC = test system: HOP-62 NSCLC
HOP-92 NSCLC = test system: HOP-92 NSCLC
K-562 leukemia = test system: K-562 leukemia
KM12 colon = test system: KM12 colon
LOX IMVI melanoma = test system: LOX IMVI melanoma
M14 melanoma = test system: M14 melanoma
MALME-3M melanoma = test system: MALME-3M melanoma
MCF7 breast = test system: MCF7 breast
MDA-MB-231 breast = test system: MDA-MB-231 breast
MDA-MB-435 = test system: MDA-MB-435
MDA-N = test system: MDA-N
MOLT-4 leukemia = test system: MOLT-4 leukemia
NCI-H226 lung = test system: NCI-H226 lung
NCI-H23 lung = test system: NCI-H23 lung
NCI-H460 lung = test system: NCI-H460 lung
NCI-H522 lung = test system: NCI-H522 lung
NCI/ADR-RES ovarian = test system: NCI/ADR-RES ovarian
OVCAR-3 ovarian = test system: OVCAR-3 ovarian
OVCAR-4 ovarian = test system: OVCAR-4 ovarian
OVCAR-5 ovarian = test system: OVCAR-5 ovarian
PC-3 prostate = test system: PC-3 prostate
RXF 393 renal = test system: RXF 393 renal
SF-268 CNS = test system: SF-268 CNS
SF-295 CNS = test system: SF-295 CNS
SF-539 CNS = test system: SF-539 CNS
SK-MEL-2 melanoma = test system: SK-MEL-2 melanoma
SK-MEL-28 melanoma = test system: SK-MEL-28 melanoma
SK-MEL-5 melanoma = test system: SK-MEL-5 melanoma
SN12C renal = test system: SN12C renal
SNB-19 CNS = test system: SNB-19 CNS
SNB-75 CNS = test system: SNB-75 CNS
SW-620 colon = test system: SW-620 colon
T-47D breast = test system: T-47D breast
TK-10 renal = test system: TK-10 renal
U251 CNS = test system: U251 CNS
UACC-257 melanoma = test system: UACC-257 melanoma
UACC-62 melanoma = test system: UACC-62 melanoma
UO-31 renal = test system: UO-31 renal

`CCCCCCCCCCCC[C@H](O)[C@H]1CC[C@H]([C@H](O)CCCC[C@H](O)CCCCC[C@@H](O)CC2=C[C@H](C)OC2=O)O1` showed a GI50 (786-0 renal) of 18.5 µM, a TGI (786-0 renal) of 34.5 µM and a GI50 (A549 NSCLC) of 12.4 µM. The TGI (A549 NSCLC) was 28.5 µM, the GI50 (ACHN renal) was 11.2 µM and the TGI (ACHN renal) was 5.5 µM and 23.8 µM. The GI50 (BT-549 breast) was 12.7 µM, the GI50 (CAKI-1 renal) was 17.5 µM and the TGI (CAKI-1 renal) was 36.4 µM. The GI50 (CCRF-CEM leukemia) was 5.62 µM, the TGI (CCRF-CEM leukemia) was 27.3 µM and the GI50 (COLO 205 colon) was 16.4 µM. It also gave a TGI (COLO 205 colon) of 32.7 µM, a GI50 (EKVX NSCLC) of 2500 nM and a TGI (EKVX NSCLC) of 10.9 µM. For the same molecule, the TGI (HCC-2998 colon) was 33.9 µM, the GI50 (HCT-116 colon) was 636 nM and the TGI (HCT-116 colon) was 22.7 µM. It also gave a GI50 (HCT-15 colon) of 18.7 µM, a TGI (HCT-15 colon) of 57.8 µM and a TGI (HL-60(TB) leukemia) of 8.05 µM. The GI50 (HOP-62 NSCLC) was 17.5 µM, the TGI (HOP-62 NSCLC) was 31.8 µM and the GI50 (HOP-92 NSCLC) was 23.7 µM. For the same molecule, the TGI (HOP-92 NSCLC) was 52.9 µM, the GI50 (K-562 leukemia) was 62.1 nM and the TGI (K-562 leukemia) was 26.9 µM. It also gave a GI50 (KM12 colon) of 16.9 µM, a TGI (KM12 colon) of 35.9 µM and a GI50 (LOX IMVI melanoma) of 2190 nM. The TGI (LOX IMVI melanoma) was 3.72 µM and 22.9 µM, the GI50 (M14 melanoma) was 14.2 µM and the TGI (M14 melanoma) was 27.4 µM. The TGI (MALME-3M melanoma) was 32.2 µM, the GI50 (MCF7 breast) was 10.9 µM and the TGI (MCF7 breast) was 25.4 µM. The GI50 (MDA-MB-231 breast) was 16.2 µM, the TGI (MDA-MB-231 breast) was 40.9 µM and the GI50 (MDA-MB-435) was 15.6 µM. The TGI (MDA-MB-435) was 8.48 µM and 38.8 µM, the GI50 (MDA-N) was 14.3 µM and the TGI (MDA-N) was 30.5 µM. For the same molecule, the GI50 (MOLT-4 leukemia) was 3.67 µM, the TGI (MOLT-4 leukemia) was 24.9 µM and the GI50 (NCI-H226 lung) was 17.4 µM. It also gave a TGI (NCI-H226 lung) of 43.3 µM, a GI50 (NCI-H23 lung) of 460 nM and a TGI (NCI-H23 lung) of 22.2 µM. For the same molecule, the GI50 (NCI-H460 lung) was 986 nM, the TGI (NCI-H460 lung) was 22.9 µM and the TGI (NCI-H522 lung) was 19.7 µM. The GI50 (NCI/ADR-RES ovarian) was 14.5 µM, the TGI (NCI/ADR-RES ovarian) was 34.4 µM and the GI50 (OVCAR-3 ovarian) was 17.2 µM. The TGI (OVCAR-3 ovarian) was 9.34 µM and 32.4 µM, the TGI (OVCAR-4 ovarian) was 36.1 µM and the TGI (OVCAR-5 ovarian) was 31.7 µM. The GI50 (PC-3 prostate) was 16.2 µM, the TGI (PC-3 prostate) was 29.8 µM and the TGI (RXF 393 renal) was 33.2 µM. It also gave a GI50 (SF-268 CNS) of 17 µM, a TGI (SF-268 CNS) of 40.3 µM and a GI50 (SF-295 CNS) of 3 µM. The TGI (SF-295 CNS) was 20.1 µM, the TGI (SF-539 CNS) was 29.5 µM and the GI50 (SK-MEL-2 melanoma) was 19.9 µM. It also gave a TGI (SK-MEL-2 melanoma) of 36.2 µM, a GI50 (SK-MEL-28 melanoma) of 20 µM and a TGI (SK-MEL-28 melanoma) of 41.2 µM. The GI50 (SK-MEL-5 melanoma) was 60.2 nM, the TGI (SK-MEL-5 melanoma) was 15.6 µM and the GI50 (SN12C renal) was 17.8 µM. The TGI (SN12C renal) was 38.8 µM, the GI50 (SNB-19 CNS) was 13.3 µM and the TGI (SNB-19 CNS) was 27.7 µM. The GI50 (SNB-75 CNS) was 16.3 µM, the TGI (SNB-75 CNS) was 31.7 µM and the GI50 (SW-620 colon) was 21.6 µM. It also gave a TGI (SW-620 colon) of 64 µM, a GI50 (T-47D breast) of 2820 nM and a TGI (T-47D breast) of 21.6 µM. For the same molecule, the GI50 (TK-10 renal) was 13.1 µM, the TGI (TK-10 renal) was 26.8 µM and the TGI (U251 CNS) was > 100 µM. The GI50 (UACC-257 melanoma) was 1690 nM, the TGI (UACC-257 melanoma) was 5.81 µM and 19 µM and the TGI (UACC-62 melanoma) was 7.17 µM. The GI50 (UO-31 renal) was 14.6 µM and the TGI (UO-31 renal) was 7.44 µM and 28.8 µM.
